Test results published in BigSolDB 2.1.

O=C(O)c1ccc(Cl)cc1Cl
solubility (mole fraction)
Details | in acetone | in acetonitrile | in ethanol | in ethyl acetate | in isobutanol | in isopropanol | in methanol | in n-butanol | in n-propanol | in toluene
273.15 K | 0.0323 | 0.00318 | 0.0364 | 0.0232 | 0.0242 | 0.0367 | 0.0261 | 0.0374 | 0.0348 | 0.00132
278.15 K | 0.0359 | 0.00361 | 0.04 | 0.0263 | 0.0281 | 0.0412 | 0.0294 | 0.0418 | 0.0385 | 0.00174
283.15 K | 0.0394 | 0.00451 | 0.0442 | 0.0308 | 0.0326 | 0.0459 | 0.0331 | 0.0468 | 0.0422 | 0.0022
288.15 K | 0.0439 | 0.00531 | 0.0485 | 0.0347 | 0.0375 | 0.0501 | 0.0369 | 0.0511 | 0.0465 | 0.00284
293.15 K | 0.0482 | 0.00597 | 0.0537 | 0.0395 | 0.043 | 0.0565 | 0.0411 | 0.0563 | 0.052 | 0.0036
298.15 K | 0.0531 | 0.00702 | 0.0591 | 0.0441 | 0.0483 | 0.0627 | 0.0458 | 0.0616 | 0.0575 | 0.00433
303.15 K | 0.0585 | 0.00786 | 0.065 | 0.0484 | 0.0535 | 0.0699 | 0.0505 | 0.0676 | 0.0631 | 0.00552
308.15 K | 0.0648 | 0.00929 | 0.0719 | 0.0537 | 0.0597 | 0.0769 | 0.0556 | 0.0746 | 0.0695 | 0.00671
313.15 K | 0.0713 | 0.0103 | 0.0788 | 0.0595 | 0.066 | 0.0849 | 0.0616 | 0.0814 | 0.0763 | 0.00837
318.15 K | 0.0784 | 0.0115 | 0.0849 | 0.0654 | 0.0719 | 0.0944 | 0.0673 | 0.0891 | 0.0823 | 0.00993
